Measured values as given in ChEMBL document CHEMBL1201862, “PubChem BioAssay data set” (2004).
Calls of active or inactive are those of the source.

Tests used:
Assay type in all cases: functional
[1] = target: RAC-gamma serine/threonine-protein kinase (Homo sapiens, UniProt Q9Y243)
[2] = target: Vascular endothelial growth factor receptor 2 (Homo sapiens, UniProt P35968)
[3] = target: Serine/threonine-protein kinase Chk1 (Homo sapiens, UniProt O14757);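 also: measured as one member of a kinome-wide kinase profiling panel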
[4] = target: Receptor-type tyrosine-protein kinase FLT3 (Homo sapiens, UniProt P36888);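 also: FLT3 was tested as one member of a kinome-wide kinase panel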
[5] = target: RAC-alpha serine/threonine-protein kinase (Homo sapiens, UniProt P31749);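 also: AKT1 affinity measured as one member of a kinome-wide kinase profiling panel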
[6] = target: Serine/threonine-protein kinase PLK3 (Homo sapiens, UniProt Q9H4B4)
[7] = target: Fibroblast growth factor receptor 1 (Homo sapiens, UniProt P11362)
[8] = target: Serine/threonine-protein kinase pim-1 (Homo sapiens, UniProt P11309)
[9] = target: Serine/threonine-protein kinase pim-3 (Homo sapiens, UniProt Q86V86);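 also: value obtained as one member of a broad kinase panel profiling effort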
[10] = target: Hepatocyte growth factor receptor (Homo sapiens, UniProt P08581);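 also: kinase panel profiling across the kinome, with MET as the panel member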
[11] = target: Serine/threonine-protein kinase PLK1 (Homo sapiens, UniProt P53350);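 also: PLK1 measured as one member of a kinome-wide profiling panel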
[12] = target: Serine/threonine-protein kinase PLK4 (Homo sapiens, UniProt O00444);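 also: PLK4 measured as one member of a kinome-wide kinase profiling panel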
Insulin receptor = Insulin receptor (Homo sapiens, UniProt P06213);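 also: insulin receptor kinase tested as one member of a kinome-wide kinase panel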
[13] = target: Cyclin-dependent kinase 19 (Homo sapiens, UniProt Q9BWU1); test: Navigating the Kinome. Panel member name: CDC2L6
[14] = target: ALK tyrosine kinase receptor (Homo sapiens, UniProt Q9UM73);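 also: ALK tested as one member of a kinase panel screen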
[15] = target: Dual specificity protein kinase CLK4 (Homo sapiens, UniProt Q9HAZ1)
[16] = target: Cyclin-dependent kinase 8 (Homo sapiens, UniProt P49336); test: Navigating the Kinome. Panel member name: CDK8
[17] = target: High affinity nerve growth factor receptor (Homo sapiens, UniProt P04629);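 also: NTRK1 tested as one member of a kinome-wide profiling panel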
[18] = target: BDNF/NT-3 growth factors receptor (Homo sapiens, UniProt Q16620);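 also: NTRK2 measured as one member of a broad kinome-wide kinase profiling panel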
[19] = target: T1, Orexin/Hypocretin receptor type 1 (Homo sapiens, UniProt O43613); test: (§1) Fluorescence-based cell-based high throughput dose response assay for antagonists of the orexin 1 receptor (OX1R; HCRTR1). [Related pubchem assays (depositor defined):AID434989, AID435008, AID463079, AID485270, AID492963, AID492964, AID492965, AID493232, AID504717, AID504718]
T1 sequence (O43613 whole entry): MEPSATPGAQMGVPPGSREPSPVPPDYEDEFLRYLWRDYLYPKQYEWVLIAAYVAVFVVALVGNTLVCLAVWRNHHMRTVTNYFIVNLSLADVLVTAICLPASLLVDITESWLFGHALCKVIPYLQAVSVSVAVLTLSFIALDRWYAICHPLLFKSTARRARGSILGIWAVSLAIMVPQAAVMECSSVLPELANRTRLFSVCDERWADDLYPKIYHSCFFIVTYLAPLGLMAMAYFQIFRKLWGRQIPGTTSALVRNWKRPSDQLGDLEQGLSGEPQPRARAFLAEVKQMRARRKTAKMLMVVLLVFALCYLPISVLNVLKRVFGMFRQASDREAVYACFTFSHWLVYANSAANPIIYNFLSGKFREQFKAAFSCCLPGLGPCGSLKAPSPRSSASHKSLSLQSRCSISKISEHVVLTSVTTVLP

Orexin receptor type 2 [20] = target: T2, Orexin receptor type 2 (Homo sapiens, UniProt O43614); test: Counterscreen assay for antagonists of the orexin 1 receptor (OX1R; HCRTR1): Homogeneous Time Resolved Fluorescence (HTRF)-based cell-based dose response assay for antagonists of the orexin 2 receptor (OX2R; HCRTR2), run by assay provider.
[21] = (§2) Counterscreen for antagonists of the orexin 1 receptor (OX1R; HCRTR1): Fluorescence-based cell-based high throughput dose response assay to identify antagonists of the parental CHO cell line. [Related pubchem assays (depositor defined):AID434989, AID435008, AID463079, AID485270, AID492963, AID492964, AID492965, AID493232, AID504699, AID504701]
[22] = target: T1, Orexin/Hypocretin receptor type 1; test: as §1, with “Homogeneous Time Resolved Fluorescence (HTRF)-based” for “Fluorescence-based”
Orexin receptor type 2 [23] = target: T2, Orexin receptor type 2; test: Counterscreen assay for antagonists of the orexin 1 receptor (OX1R; HCRTR1): Fluorescence-based cell-based dose response assay for antagonists of the orexin 2 receptor (OX2R; HCRTR2), run by assay provider.
CHO-K1 = test: as §2, with “Homogeneous time resolved fluorescence (HTRF)-based” for “Fluorescence-based”, “cell-based” for “cell-based high throughput”, “CHO-K1” for “CHO”; details: Cricetulus griseus;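 also: potency for inhibition of ATP-stimulated IP1 production as antagonists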
[24] = target: T3, High affinity choline transporter 1 (Homo sapiens, UniProt Q9GZV3); test: human choline transporter blockers, potency – cell-based, 5-point CRC, membrane potential dye, dose response (AID 504840)
T3 sequence (Q9GZV3 whole entry): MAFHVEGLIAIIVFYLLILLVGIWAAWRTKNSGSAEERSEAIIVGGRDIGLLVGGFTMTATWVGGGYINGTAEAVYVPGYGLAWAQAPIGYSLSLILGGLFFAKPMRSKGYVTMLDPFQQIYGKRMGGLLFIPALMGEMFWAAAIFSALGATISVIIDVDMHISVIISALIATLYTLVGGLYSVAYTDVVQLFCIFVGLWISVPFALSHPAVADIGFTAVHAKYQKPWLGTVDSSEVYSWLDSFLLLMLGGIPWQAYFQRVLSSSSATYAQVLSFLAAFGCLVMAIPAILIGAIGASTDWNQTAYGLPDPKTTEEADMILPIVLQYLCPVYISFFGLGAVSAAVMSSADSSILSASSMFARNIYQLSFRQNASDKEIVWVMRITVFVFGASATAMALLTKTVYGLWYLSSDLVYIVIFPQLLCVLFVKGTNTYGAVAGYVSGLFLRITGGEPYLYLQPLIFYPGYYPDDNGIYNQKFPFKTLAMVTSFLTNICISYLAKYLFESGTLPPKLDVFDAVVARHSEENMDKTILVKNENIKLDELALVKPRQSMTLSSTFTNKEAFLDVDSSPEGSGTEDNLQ

[25] = target: T3, High affinity choline transporter 1; test: human choline transporter blockers, potency – cell-based, 10-point CRC, membrane potential dye, dose response (AID 588401);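 also: membrane potential dye fluorescence of choline-evoked depolarization via CHT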
[26] = target: Mitogen-activated protein kinase 13 (Homo sapiens, UniProt O15264)
[27] = target: Leucine-rich repeat serine/threonine-protein kinase 2 (Homo sapiens, UniProt Q5S007);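 also: value from a broad kinome-wide panel profiling study in which LRRK2 was one of the kinases tested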
[28] = target: Vascular endothelial growth factor receptor 1 (Homo sapiens, UniProt P17948);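 also: measured within a kinome-wide profiling panel, FLT1 as the panel member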
Chain of Vascular endothelial growth factor receptor 1 (P17948 whole entry): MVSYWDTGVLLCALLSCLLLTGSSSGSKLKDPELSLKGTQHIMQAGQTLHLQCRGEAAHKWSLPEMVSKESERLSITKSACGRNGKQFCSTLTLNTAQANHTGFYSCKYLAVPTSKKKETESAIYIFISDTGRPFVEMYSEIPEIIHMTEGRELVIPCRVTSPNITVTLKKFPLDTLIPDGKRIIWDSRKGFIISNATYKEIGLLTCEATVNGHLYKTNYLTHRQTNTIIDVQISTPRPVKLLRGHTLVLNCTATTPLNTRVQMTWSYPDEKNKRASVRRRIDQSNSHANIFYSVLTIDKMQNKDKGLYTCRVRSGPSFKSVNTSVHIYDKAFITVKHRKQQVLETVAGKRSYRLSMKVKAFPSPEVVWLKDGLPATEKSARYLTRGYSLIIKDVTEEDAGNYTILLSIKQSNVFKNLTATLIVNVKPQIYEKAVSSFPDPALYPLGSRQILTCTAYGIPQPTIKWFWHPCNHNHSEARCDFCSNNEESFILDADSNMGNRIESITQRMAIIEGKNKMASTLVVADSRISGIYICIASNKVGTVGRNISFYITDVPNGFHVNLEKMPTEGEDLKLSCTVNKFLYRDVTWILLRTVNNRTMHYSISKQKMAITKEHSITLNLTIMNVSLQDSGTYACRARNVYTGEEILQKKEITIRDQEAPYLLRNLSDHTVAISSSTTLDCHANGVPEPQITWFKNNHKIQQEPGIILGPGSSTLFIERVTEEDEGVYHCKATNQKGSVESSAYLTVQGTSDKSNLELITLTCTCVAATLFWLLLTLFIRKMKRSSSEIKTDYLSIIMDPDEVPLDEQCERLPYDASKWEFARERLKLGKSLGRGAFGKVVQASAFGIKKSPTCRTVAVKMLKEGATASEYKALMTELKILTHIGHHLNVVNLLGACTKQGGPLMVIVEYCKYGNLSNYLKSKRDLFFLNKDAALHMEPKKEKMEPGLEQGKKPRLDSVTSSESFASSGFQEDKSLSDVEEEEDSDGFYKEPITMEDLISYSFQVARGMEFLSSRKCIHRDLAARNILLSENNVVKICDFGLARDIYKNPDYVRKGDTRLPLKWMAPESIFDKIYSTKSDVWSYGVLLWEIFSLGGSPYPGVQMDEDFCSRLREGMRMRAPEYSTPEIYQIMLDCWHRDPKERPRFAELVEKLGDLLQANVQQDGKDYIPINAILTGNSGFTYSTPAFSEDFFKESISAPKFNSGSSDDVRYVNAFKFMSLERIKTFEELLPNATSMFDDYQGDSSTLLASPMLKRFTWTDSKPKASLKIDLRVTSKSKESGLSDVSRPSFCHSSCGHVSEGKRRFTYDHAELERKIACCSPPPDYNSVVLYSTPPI

Chain of Fibroblast growth factor receptor 1 (P11362 whole entry): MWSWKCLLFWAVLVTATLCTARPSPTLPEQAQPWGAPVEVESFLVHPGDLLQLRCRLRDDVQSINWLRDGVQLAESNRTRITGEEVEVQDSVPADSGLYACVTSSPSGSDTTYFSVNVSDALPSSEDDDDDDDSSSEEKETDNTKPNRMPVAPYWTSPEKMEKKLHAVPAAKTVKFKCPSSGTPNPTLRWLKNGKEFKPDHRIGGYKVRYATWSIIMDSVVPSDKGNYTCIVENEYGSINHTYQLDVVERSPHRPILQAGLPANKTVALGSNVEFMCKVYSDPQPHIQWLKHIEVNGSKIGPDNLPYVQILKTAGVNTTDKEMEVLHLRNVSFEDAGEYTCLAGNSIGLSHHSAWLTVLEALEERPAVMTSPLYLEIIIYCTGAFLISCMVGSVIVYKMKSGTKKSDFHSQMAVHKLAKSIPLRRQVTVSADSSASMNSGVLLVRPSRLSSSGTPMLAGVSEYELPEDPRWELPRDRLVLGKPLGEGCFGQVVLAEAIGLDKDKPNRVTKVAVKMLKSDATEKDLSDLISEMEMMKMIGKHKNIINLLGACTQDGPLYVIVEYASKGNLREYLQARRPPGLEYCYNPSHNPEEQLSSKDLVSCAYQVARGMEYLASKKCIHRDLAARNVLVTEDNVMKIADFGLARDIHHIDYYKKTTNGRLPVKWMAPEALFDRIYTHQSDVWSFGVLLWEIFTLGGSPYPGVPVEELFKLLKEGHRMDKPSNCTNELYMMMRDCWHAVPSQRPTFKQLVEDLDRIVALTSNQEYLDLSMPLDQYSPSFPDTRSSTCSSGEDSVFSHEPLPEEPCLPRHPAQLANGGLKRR
T2 sequence (O43614 whole entry): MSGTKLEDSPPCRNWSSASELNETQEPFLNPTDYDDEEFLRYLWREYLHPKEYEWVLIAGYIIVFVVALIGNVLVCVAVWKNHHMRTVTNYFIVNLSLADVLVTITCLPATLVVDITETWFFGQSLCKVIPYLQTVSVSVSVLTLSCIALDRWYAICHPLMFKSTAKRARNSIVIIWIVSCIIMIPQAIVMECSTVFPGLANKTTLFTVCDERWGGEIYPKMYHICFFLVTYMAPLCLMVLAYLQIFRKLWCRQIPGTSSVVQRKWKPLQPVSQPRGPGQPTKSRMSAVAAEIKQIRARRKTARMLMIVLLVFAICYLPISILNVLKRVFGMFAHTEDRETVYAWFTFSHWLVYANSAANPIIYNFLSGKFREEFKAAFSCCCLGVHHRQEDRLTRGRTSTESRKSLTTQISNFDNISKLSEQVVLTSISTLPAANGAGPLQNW
Chain of Receptor-type tyrosine-protein kinase FLT3 (P36888 whole entry): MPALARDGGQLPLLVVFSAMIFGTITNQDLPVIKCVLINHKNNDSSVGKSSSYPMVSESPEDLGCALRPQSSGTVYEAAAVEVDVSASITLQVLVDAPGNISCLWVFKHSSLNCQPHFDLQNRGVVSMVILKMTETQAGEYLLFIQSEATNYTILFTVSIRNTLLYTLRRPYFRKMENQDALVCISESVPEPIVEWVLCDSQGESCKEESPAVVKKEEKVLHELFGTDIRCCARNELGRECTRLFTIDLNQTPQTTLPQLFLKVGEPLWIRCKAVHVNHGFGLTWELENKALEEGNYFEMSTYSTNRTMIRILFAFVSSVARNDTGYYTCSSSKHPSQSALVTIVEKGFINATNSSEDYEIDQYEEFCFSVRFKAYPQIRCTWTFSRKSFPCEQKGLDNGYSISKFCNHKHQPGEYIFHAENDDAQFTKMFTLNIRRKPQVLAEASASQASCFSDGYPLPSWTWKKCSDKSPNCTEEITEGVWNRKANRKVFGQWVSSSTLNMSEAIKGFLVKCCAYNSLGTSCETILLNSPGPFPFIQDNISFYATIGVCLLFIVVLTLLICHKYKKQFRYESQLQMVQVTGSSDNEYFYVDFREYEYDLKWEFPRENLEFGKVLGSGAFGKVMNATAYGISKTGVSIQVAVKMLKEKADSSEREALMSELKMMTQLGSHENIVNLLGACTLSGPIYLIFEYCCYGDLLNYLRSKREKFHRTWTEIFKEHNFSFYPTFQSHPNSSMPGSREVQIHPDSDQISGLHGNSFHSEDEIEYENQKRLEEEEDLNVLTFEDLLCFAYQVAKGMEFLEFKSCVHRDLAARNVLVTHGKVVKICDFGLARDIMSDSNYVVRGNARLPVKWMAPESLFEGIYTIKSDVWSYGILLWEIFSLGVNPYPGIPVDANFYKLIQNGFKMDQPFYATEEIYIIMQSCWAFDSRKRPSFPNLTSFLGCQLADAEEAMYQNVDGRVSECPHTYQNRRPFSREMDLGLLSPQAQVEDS
Chain of RAC-gamma serine/threonine-protein kinase (Q9Y243 whole entry): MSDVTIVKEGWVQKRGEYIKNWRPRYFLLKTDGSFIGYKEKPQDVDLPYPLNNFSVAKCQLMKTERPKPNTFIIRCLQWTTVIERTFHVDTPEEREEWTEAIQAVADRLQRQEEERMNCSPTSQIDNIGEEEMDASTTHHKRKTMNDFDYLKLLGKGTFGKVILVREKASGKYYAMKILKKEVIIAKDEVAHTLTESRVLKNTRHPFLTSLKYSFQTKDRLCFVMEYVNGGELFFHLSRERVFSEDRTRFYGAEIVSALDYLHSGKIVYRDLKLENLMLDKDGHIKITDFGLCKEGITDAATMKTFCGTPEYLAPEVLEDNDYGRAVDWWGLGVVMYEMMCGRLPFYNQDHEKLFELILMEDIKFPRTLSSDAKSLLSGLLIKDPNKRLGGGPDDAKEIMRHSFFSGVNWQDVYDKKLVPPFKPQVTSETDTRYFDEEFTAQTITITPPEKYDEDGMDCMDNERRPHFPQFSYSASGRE
Chain of Cyclin-dependent kinase 8 (P49336 whole entry): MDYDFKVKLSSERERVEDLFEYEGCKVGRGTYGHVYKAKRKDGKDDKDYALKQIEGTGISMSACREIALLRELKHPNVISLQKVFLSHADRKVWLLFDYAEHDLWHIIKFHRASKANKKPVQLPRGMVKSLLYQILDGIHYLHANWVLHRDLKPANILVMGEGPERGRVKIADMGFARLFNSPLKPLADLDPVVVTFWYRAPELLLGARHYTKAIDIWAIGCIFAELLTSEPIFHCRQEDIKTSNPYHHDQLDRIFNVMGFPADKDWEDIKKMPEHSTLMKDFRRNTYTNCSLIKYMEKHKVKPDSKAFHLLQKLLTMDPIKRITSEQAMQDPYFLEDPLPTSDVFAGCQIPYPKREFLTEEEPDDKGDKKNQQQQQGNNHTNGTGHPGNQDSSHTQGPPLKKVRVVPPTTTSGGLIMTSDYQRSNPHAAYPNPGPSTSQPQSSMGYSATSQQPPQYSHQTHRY
Chain of Serine/threonine-protein kinase pim-1 (P11309 whole entry): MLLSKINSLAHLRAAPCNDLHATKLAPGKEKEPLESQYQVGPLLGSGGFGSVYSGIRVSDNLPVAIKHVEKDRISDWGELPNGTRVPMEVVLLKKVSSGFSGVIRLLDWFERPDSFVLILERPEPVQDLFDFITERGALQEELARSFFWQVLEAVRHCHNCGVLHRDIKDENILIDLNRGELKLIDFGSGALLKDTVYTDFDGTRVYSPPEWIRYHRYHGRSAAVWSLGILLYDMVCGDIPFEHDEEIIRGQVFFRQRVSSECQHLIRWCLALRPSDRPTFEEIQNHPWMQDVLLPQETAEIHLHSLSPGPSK

Which Ki [1] does the source give for Nc1n[nH]c2c(Cl)cccc12 here?
The Ki was > 100 µM (inactive).

And the Ki [2]?
Its Ki is > 79.4 µM (inactive).

And the Ki [3]?
The Ki was 25.1 µM (active).

And the Ki [4]?
The Ki was 2.51 µM (active).

What about the Ki [5] of the same compound?
The Ki was > 79.4 µM (inactive).

What about the Ki [6] of the same compound?
The Ki was 10 µM (active).

And the Ki [7]?
Its Ki is > 50.1 µM (inactive).

And the Ki [8]?
The Ki was > 100 µM (inactive).

And the Ki [9]?
Its Ki is > 79.4 µM (inactive).

What about the Ki [10] of the same compound?
Its Ki is > 31.6 µM (inactive).

What about the Ki [11] of the same compound?
The Ki was > 79.4 µM (inactive).

And the Ki [12]?
The Ki was > 39.8 µM (inactive).

And the Ki (Insulin receptor)?
Its Ki is > 50.1 µM (inactive).

For Cn1cc(Nc2ncc(Br)c(Nc3ccccc3Cl)n2)cn1, which Ki [13] is on record?
Its Ki is 1 µM (active).

What about the Ki [14] of the same compound?
The Ki was 0.0631 µM (active).

Which Ki [4] does the source give for CC(C)(C)c1ccc2nc(-c3n[nH]c4ccc(Br)cc34)[nH]c2c1 here?
Its Ki is 2.51 µM (active).

What about the Ki [7] of the same compound?
Its Ki is 3.16 µM (active).

And the Ki [15]?
Its Ki is 1.26 µM (active).

With O=C(O)C1CN(Cc2ccc(CCc3cccc(C(F)(F)F)c3)cc2)C1 as the compound, how does the Ki [16] read?
Its Ki is 3.16 µM (active).

What does the source list for COc1ccc(COc2ccc(Cc3cnc(N)nc3N)cc2OC)cc1 [GW632580X]?
Ki [17]: 1.58 µM (active); Ki [18]: 0.158 µM (active)

Which IC50 [19] does the source give for Sc1nnc(-c2cc(-c3ccccc3)[nH]n2)n1/N=C/c1cccs1 here?
The IC50 was > 49.7 µM (inactive).

What about the IC50 (Orexin receptor type 2 [20]) of the same compound?
Its IC50 is > 50 µM (inactive).

And the IC50 [21]?
The IC50 was > 49.7 µM (inactive).

And the IC50 [22]?
The IC50 was 8.08 µM (active).

What about the IC50 (Orexin receptor type 2 [23]) of the same compound?
Its IC50 is > 88.8 µM (inactive).

What about the IC50 (CHO-K1) of the same compound?
The IC50 was > 66.2 µM (inactive).

What does the source list for Cc1ccc(C)[n+](CC(=O)c2ccc(-c3ccccc3)cc2)c1?
IC50 [24]: 10.3 µM (active); IC50 [25]: 10.8 µM (active)

Which Ki [26] does the source give for CS(=O)(=O)Nc1cc2c(cc1Cl)NC(=O)Nc1cnc(C#N)c(n1)OCCCCCO2 here?
Its Ki is > 7.94 µM (inactive).

Which Ki [27] does the source give for COc1ccc(CNC(=O)c2sc3nc(C)cc(C)c3c2N)cc1 here?
Its Ki is 1 µM (active).

And the Ki [28]?
The Ki was 3.16 µM (active).
